Legend:
[1] = Storage stability of ointment at 40° C. and 75% RH: content against initial content; format: physicochemical; conditions: storage at 40° C. and 75% RH 1 month or 25° C. 3 months, Table 5
Protocol: To confirm the storage stability of the compound represented by formula (II) in the preparation, the content (%) of the compound after a storage at 40° C. and 75% RH against the content at the time of initiation, was determined.
To confirm the storage stability of the compound represented by formula (II) in the preparation, the contents (%) of the compound after storages at 40° C. and 75% RH, and at 50° C. against the content at the time of initiation, was determined.
To confirm the storage stability of the compound represented by formula (II) in the preparation, the contents (%) of the compound after a storage at 40° C. and 75% RH, or at 25° C. against the content at the time of initiation, was determined.

NC/Nga mice = assay: Spontaneous scratching action after ointment application; format: in vivo; conditions: ointment applied to NC/Nga mice; FIG. 2
Protocol: [FIG. 2] A graph showing the number of scratching action (average value ±SE, n=8) when a present ointment was applied to NC/Nga mice.
(§1) According to the methods described in the literature (Japanese Laid-open patent publication Nos. 2005-247843 and 2005-247842), measurements of the spontaneous action of scratching and the amount of transdermal water evaporation were performed with regard to the compound represented by formula (II). A test was performed, using ointments prepared in the same manner as in Example 4 to have the compound represented by formula (II) at concentrations of 0.0001% and 0.001%.

[2] = system: BALB/c mice having the skin barrier destroyed by chafing; assay: Transdermal water evaporation (TEWL) after ointment application; format: in vivo; conditions: ointment applied to BALB/c mice with skin barrier destroyed by chafing, compared with base only; FIG. 3
Protocol: [FIG. 3] A graph showing the amount of transdermal evaporation of water (TEWL, average value ±SE, n=8) when a present ointment was applied to BALB/c mice having the skin barrier destroyed by chafing.
as §1

O=C(O)CSCCCC[C@@H]1[C@@H](C#C[C@@H](O)C2CCCCC2)[C@H](O)C[C@H]1Cl [compound represented by formula (II)]
storage stability (in words) [1]: stable in the drugs
number of scratching action (NC/Nga mice): a decrease in the scratching action
amount of transdermal evaporation of water (TEWL) [2]: a decrease in the amount of transdermal water evaporation

— patent publication US20080167379A1, “Ointment” (TAISHO PHARMACEUTICAL CO., LTD., priority 2005, published 2008)
